The structures appear in SMILES notation.

Data on 1 compound can be found in article doi:10.1101/2024.12.01.626272v1 (biorxiv, 2024).

In this experiment the target is T1, olaAHR2a (Oryzias latipes, UniProt A0A2I4U6J3).
T1 sequence (A0A2I4U6J3 1-904): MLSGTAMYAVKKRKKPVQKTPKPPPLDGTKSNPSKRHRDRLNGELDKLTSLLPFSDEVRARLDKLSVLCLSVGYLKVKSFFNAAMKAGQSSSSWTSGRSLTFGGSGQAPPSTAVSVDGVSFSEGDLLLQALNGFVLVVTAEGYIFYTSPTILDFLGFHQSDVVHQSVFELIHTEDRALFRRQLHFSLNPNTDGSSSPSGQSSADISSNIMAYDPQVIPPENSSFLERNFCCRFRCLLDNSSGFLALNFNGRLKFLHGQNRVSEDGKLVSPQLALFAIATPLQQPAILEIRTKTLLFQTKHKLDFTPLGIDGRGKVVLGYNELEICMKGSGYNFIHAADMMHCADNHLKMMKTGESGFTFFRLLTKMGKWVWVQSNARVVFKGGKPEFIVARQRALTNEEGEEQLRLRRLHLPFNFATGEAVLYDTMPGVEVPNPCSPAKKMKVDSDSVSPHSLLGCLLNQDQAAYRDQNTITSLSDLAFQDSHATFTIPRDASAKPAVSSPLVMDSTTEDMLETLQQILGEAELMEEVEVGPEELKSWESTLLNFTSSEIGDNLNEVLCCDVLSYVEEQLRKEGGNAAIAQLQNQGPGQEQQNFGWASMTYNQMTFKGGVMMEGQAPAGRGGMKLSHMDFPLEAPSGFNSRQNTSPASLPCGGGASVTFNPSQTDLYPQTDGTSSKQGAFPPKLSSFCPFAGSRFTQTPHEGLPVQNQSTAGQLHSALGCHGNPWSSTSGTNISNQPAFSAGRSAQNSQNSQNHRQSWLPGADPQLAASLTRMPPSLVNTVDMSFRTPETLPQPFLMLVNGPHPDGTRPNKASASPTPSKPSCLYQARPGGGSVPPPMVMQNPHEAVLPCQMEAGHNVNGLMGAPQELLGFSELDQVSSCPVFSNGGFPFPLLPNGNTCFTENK
As to the kind of experiment: luciferase reporter transactivation. In kind it is cell-based. A general note: In a reporter assay the amount or activity of a reporter protein is the signal.

Usually EC50 stands for the concentration giving half of the maximal effect. Consider `O=c1cc(-c2ccccc2)oc2ccc3ccccc3c12` [BNF], for which a half-maximal response (EC50) required 19.4 ± 1.98 nM.
